Measurements: patent US20230190694A1, “COMPOSITIONS FOR AND METHODS OF PRECISION CANCER TREATMENT” (priority 2021, published 2023)

Tests used:
Solubility in water = assay type: physicochemical
[1] = tested on: mutated and amplified genes (ctDNA) in blood; test: Molecular response by repeated Guardant 360 tests (ctDNA in blood); assay type: in vivo, human; details: individual patients; genes named in the cited cell or block
Description: Molecular response was determined by repeated Guardant 360 tests. […] Herein, blood samples were collected from patients and provided to Guardant for panel testing wherein a “panel” was defined as five or more ctDNA genes or gene mutation variants tested on the same day on the same member by the same rendering provider (i.e., Guardant).

[2] = tested on: Uncommon Cancers (Neoplastic Disorders); test: Patients with uncommon cancers treated with AS2-1 in combination with other drugs: response and survival; assay type: in vivo, human; details: GIST patient, before the combination of AS and sunitinib
Description: Patients diagnosed with 34 types of terminal cancer were treated with Antineoplaston AS2-1 (AS) therapy to reduce and/or abolish tumors and other signs of cancer and reduce and/or abolish expression of cancer-causing genes. In brief, patients admitted for treatment herein were diagnosed with terminal, Stage IV, cancers of varying types with multiple metastases and had failed standard-of-care regimens, except for a small number of patients who were treatment naive, but were not candidates for standard treatment because of very advanced disease and less than 6 months life expectancy. The estimated survival for these patients was from less than one to less than 6 months. The patients had radiological evidence of advanced metastatic cancer performed within 4 weeks from treatment start and genomic analysis, usually ordered at admission, including Guardant 360 blood test and/or Foundation One and/or Tempus blood or tissue test and/or SEMA4 tissue test. […]
At baseline, history taking, physical examination, necessary laboratory, genomic and radiological evaluations were performed. Two largest perpendicular diameters of the radiologically significant lesions were measured including MRI contrast-enhanced lesions in the brain and spinal cord. […] Mixed response was determined when there was a CR or PR of some lesions and PD of the other lesions. […]

Row | Compound | Genes affected by AS / molecular response: status of mutated or amplified genes in follow-up blood genomic analysis [1] | also measured
1 | NC(=O)C(CCC(=O)[O-])NC(=O)Cc1ccccc1.[Na+] (stereo not shown) [Iso-PG, phenylacetylisoglutaminate sodium] | – | solubility in water (Solubility in water): soluble in water
2 | CCc1cc2c(cc1N1CCC(N3CCOCC3)CC1)C(C)(C)c1[nH]c3cc(C#N)ccc3c1C2=O [alectinib] | Elimination of the ALK fusion | –
3 | Cc1ccc(NC(=O)c2ccc(CN3CCN(C)CC3)cc2)cc1Nc1nccc(-c2cccnc2)n1 [imatinib] | – | response to prior targeted therapy [2]: failed to respond
4 | C=CC(=O)Nc1cc(Nc2nccc(-c3cn(C)c4ccccc34)n2)c(OC)cc1N(C)CCN(C)C [osimertinib] | elimination of the two EGFR mutations | –
